Here are results for one substance from patent publication US9096643B2, “Cell-protective peptides and uses thereof” (priority 2010, dated 2015).

Values joined by “and” are separate entries in the source; they are usually repeats but may differ in a detail not shown here. Equal values may be shown once.

Type in all cases: cell-based
Test [1] has as its system Human ESC-derived cardiac cells (Hes2). Put plainly: TUNEL assay with cTnT co-localization of human ESC-derived cardiac cells. As to conditions: 50 μM, FIG. 21. The procedure:
Human ESC-derived cardiac cell culture, were derived from Day 20 EBs, consisting of greater than 50% cardiomyocytes obtained by directed differentiation of human ES (Hes2) cells as described by Yang et al. (Nature 453, 524-528 (2008)). EBs were dissociated using Collagenase I (Invitrogen) for 2 hrs and 0.05% Trypsin-EDTA (Invitrogen) for 5 min and plated at 40000 cells/cm^2 onto 0.2% gelatin-coated plates in Stempro 34 medium supplemented with VEGF (10 ng/ml) and DKK1 (150 ng/ml). Cells were cultured in the presence of 50 μM QHREDGS, 50 μM DGQESHR (Biomatik) or PBS until they formed a beating monolayer, around 10 days. Peptides were replenished during media changes every 3 days. 100 μM H2O2 (Sigma, dissolved in PBS) was added to culture media for 10 min, washed, and analyzed immediately for CFDA-Live/PI-Dead. Live cells were counted using the cell counter plug in for ImageJ. 0.5 μM or 2.5 μM taxol (Sigma, dissolved in DMSO) was added to culture media for 24 hrs, and the extent of apoptosis was analyzed immediately using the Apo-ONE Homogeneous Caspase Assay (Promega), or TUNEL assay (Roche) as described above. A PBS control was used for H2O2 and DMSO control was used for taxol.

The test system of another test is human iPS cells BJ1D. Put plainly: iPS colony formation / cloning efficiency after complete dissociation at clonal density. As to the method:
(§1) The human iPS cells (BJ1D and 0901B) were obtained from the Ontario iPSC Facility and used following the hiPS cell research guidelines of the University of Toronto as described by Hotta et al. Nat. Protoc. 4, 1828-1844 (2009)), unless specified otherwise. Cells were cultured on a feeder layer of MEF cells (Mount Sinai Hospital Toronto, inactivated with 10 μg/ml mitomycin C and seeded at 1.8×10^5 per 3.5 cm dish). For single cell cultures, hiPS cell colonies were dissociated in 0.25% Trypsin-EDTA (Invitrogen) for 5 min, followed by trituration with a pipette. To ensure a single-cell suspension, the dissociated cells were passed through a 40 μm cell strainer (BD Falcon) and seeded onto MEF plates at 10 cells/ml, 10 cm plates. Cells were allowed to grow for 7 days and the total number of colonies was counted. In the treated groups, QHREDGS (Biomatik) or DGQESHR (Biomatik) dissolved in PBS (Lonza), were added at the reported concentrations to culture media at the onset of the first treatment passage and replenished with each media change. Media was changed by 100% every day. Peptides and controls were included during dissociation and passaging. Cells were analyzed after 5 passages in continuous treatment with 50 μM QHREDGS, 50 μM DGQESHR, or PBS, unless specified otherwise.
(§2) iPS cells, BJ1D or 0901B were treated with 50 μM of QHREDGS peptide, or 50 μM DGQESHR scrambled peptide in PBS with a PBS treated control for five passages as a preparation for passage by trypsin. Cells were trypsinized and plated at a clonal density of 10 cells/ml for one week and the number of colonies were counted.
(§3) After 5 passages in pre-treatment with 50 μM QHREDGS, or controls and complete dissociation (trypsinized), human iPS cells, BJ1D or 0901B cells, were plated on a mouse embryonic fibroblast (MEF) feeder layer at low density (100 cells/plate, 10 cm plate) in maintenance medium containing 50 μM QHREDGS, PBS, or 50 μM DGQESHR scrambled peptide. After one-week in culture, untreated or DGQESHR (scrambled peptide) treated groups generated few colonies, whereas QHREDGS treated groups for both BJ1D or 0901B cells produced many large colonies (˜15 times more than the controls) (see FIG. 13A/B, respectively). The colonies were positive for Oct4, a marker for the undifferentiated state. The cloning efficiency, based on ratio of Oct4+ colonies formed per initially seeded human iPS cells, was 27+/−7.1% and 2.5+/−0.6% for BJ1D and 48+/−9.4% and 22.3+/−1.9 for 0901B in the presence and absence of QHREDGS, respectively. […] Thus, treatment with QHREDGS supports single-cell culture of human iPS cells through the promotion of colony formation.

In another test the test system is human iPS cells 0901B. Described as above. As to the method:
as §1, §2, §3

Where [2] appears, read: 50 μM, 100 cells/plate on MEF, one week.
[3] abbreviates: in the presence of 50 μM QHREDGS.

In the case of QHREDGS (angiopoietin 1 peptide), the “reduction of basal apoptosis in cardiomyocytes (TUNEL/cTnT)” value in test [1] is “greater than 10 fold”. Further, the “colonies relative to controls” value in the test with human iPS cells BJ1D (setting [2]) and in the test on human iPS cells 0901B (setting [2]) was ~15 times more than the controls throughout. Further, the number of colonies entry is “increased significantly” with human iPS cells BJ1D (50 μM, trypsinized, clonal density, one week, FIG. 13A) and “increased significantly” in the test on human iPS cells 0901B (50 μM, trypsinized, clonal density, one week, FIG. 13B). For the same substance, the “cloning efficiency (Oct4+ colonies per initially seeded cells)” value is 27+/−7.1% and 27% in the test with human iPS cells BJ1D (setting [3]); 48+/−9.4% and 48% in the test on human iPS cells 0901B (setting [3]).
